# Test: Biochemical Assay: Test compounds were placed in a Greiner Bio-One (Monroe, N.C.) 1536-well black solid bottom assay plate. 200 millimolar (mM) Tris HCl, pH 7.4, 100 micromolar (μM) EDTA and 0.01% TWEEN-20™, final concentration, was used as the assay buffer. The LDHA reagent was 2 nanomolar (nM) Human LDHA (Meridian Life Science, Inc., Memphis, Tenn.), final concentration, in assay buffer.
row,SMILES,IC50
1,NS(=O)(=O)c1ccc(Cc2c(-c3ccc(F)c(-c4cccc(F)c4)c3)nn(-c3nc(C(=O)O)cs3)c2CC2CC2)cc1F,< 100 nM
2,NC(=O)c1csc(-n2nc(-c3cccc(-c4ccccc4)c3)c(Cc3ccc(S(N)(=O)=O)cc3)c2O)n1,> 57000 nM
3,Cc1ccc(-c2cc(-c3c(Cc4ccc(S(N)(=O)=O)cc4F)c(CC4CC4)nn3-c3nc(C(=O)O)cs3)ccc2F)cc1,in the range around 29000 nM
4,COc1cc(-c2nn(-c3nc(C(=O)O)cs3)c(CC3CC3)c2Cc2ccc(S(N)(=O)=O)cc2)ccc1F,< 100 nM
5,NS(=O)(=O)c1ccc(Cc2c(-c3ccc(F)c(C#CC4(F)CCOC4)c3)nn(-c3nc(C(=O)O)cs3)c2CC2CC2)cc1F (centres undefined),< 100 nM
6,Cc1cnc(-c2cc(-c3nn(-c4nc(C(=O)O)cs4)c(CC4CC4)c3Cc3ccc(S(N)(=O)=O)c(F)c3)ccc2F)s1,< 100 nM
7,NS(=O)(=O)c1ccc(Cc2c(-c3ccc(F)c(C4CC4)c3)nn(-c3nc(C(=O)O)cs3)c2CC2CC2)cc1F,< 100 nM
8,NS(=O)(=O)c1ccc(Cc2c(-c3ccc(F)c(C#CC4CCNCC4)c3)nn(-c3nc(C(=O)O)cs3)c2CC2CC2)cc1F,< 100 nM
9,NS(=O)(=O)c1ccc(Cc2c(-c3ccc(F)c(-c4ccccc4)c3)nn(-c3nc(C(=O)O)cs3)c2CC2CC2)cc1F,< 100 nM
10,NC(=O)c1ccc(Cc2c(-c3cccc(-c4ccccc4)c3)nn(-c3nc(C(=O)O)cs3)c2O)cc1,> 57000 nM
11,NS(=O)(=O)c1ccc(Cc2c(-c3ccc(F)c(OCC4CC4(F)F)c3)nn(-c3nc(C(=O)O)cs3)c2CC2CC2)cc1F (centres undefined),< 100 nM
12,NS(=O)(=O)c1ccc(Cc2c(-c3ccc(F)c(CC4CC4)c3)nn(-c3nc(C(=O)O)cs3)c2CC2CC2)cc1F,< 100 nM
13,NS(=O)(=O)c1ccc(Cc2c(C3CC3)nn(-c3nc(C(=O)O)cs3)c2-c2cccc(-c3cccc(F)c3)c2)cc1F,in the range around 29000 nM
14,NS(=O)(=O)c1ccc(Cc2c(-c3ccc(F)c(/C=C/C4CC4)c3)nn(-c3nc(C(=O)O)cs3)c2CC2CC2)cc1F,< 100 nM
